The compounds below were run against T1, human GST-PIKFYVE (Homo sapiens, UniProt Q9Y2I7) (assay: ADP-Glo kinase assay, enzyme inhibition activity against human PIKFYVE (Carna biosciences)). Conditions: inhibitory activity at final compound concentration 10 nM; 1 hour at room temperature.
T1 construct: GST; purchased Carna biosciences 11-118
Type: biochemical
Method: The enzyme inhibition activity values for the compounds according to Examples against human PIKFYVE were calculated using the ADP-Glo™ kinase assay service of Carna biosciences, Inc. The enzyme activity evaluation method provided by Carna biosciences Inc., is shown below.
Enzyme inhibition activity was evaluated by reacting the compounds according to Examples with human GST-PIKFYVE (11-118, Carna biosciences), which was purified using glutathione Sepharose chromatography. The reaction buffer used was composed of 50 mmol/L MOPS, 1 mmol/L DTT, and pH 7.2, and all reactions of the test distilled water were performed in the buffer.
Compounds were prepared as solutions in 100% DMSO as 100× stocks and adjusted to have a final sample concentration of 10 nM.
The substrate-enzyme reaction for PIKFYVE was performed by mixing 5 μL human GST-PIKFYVE, 5 μL compounds according to Examples, 5 μL enzyme substrate, and 5 μL purified ATP and reacting for 1 hour at room temperature. After the substrate-enzyme reaction, 20 μL ADP-Glo™ Reagent was added and reacted at room temperature for 40 minutes, then 40 μL Kinase Detection Reagent was added and reacted at room temperature for 40 minutes.
After completion of the reaction, the degree of enzyme activity inhibition was measured by luminescence. The fluorescence of the enzyme activity in the solvent control group […] was set to 100%, and the fluorescence of the enzyme activity in the solvent control group without compound treatment was set to 0%. The inhibitory activity of each compound according to Examples was calculated based on these values.

T1 sequence (Q9Y2I7 whole entry): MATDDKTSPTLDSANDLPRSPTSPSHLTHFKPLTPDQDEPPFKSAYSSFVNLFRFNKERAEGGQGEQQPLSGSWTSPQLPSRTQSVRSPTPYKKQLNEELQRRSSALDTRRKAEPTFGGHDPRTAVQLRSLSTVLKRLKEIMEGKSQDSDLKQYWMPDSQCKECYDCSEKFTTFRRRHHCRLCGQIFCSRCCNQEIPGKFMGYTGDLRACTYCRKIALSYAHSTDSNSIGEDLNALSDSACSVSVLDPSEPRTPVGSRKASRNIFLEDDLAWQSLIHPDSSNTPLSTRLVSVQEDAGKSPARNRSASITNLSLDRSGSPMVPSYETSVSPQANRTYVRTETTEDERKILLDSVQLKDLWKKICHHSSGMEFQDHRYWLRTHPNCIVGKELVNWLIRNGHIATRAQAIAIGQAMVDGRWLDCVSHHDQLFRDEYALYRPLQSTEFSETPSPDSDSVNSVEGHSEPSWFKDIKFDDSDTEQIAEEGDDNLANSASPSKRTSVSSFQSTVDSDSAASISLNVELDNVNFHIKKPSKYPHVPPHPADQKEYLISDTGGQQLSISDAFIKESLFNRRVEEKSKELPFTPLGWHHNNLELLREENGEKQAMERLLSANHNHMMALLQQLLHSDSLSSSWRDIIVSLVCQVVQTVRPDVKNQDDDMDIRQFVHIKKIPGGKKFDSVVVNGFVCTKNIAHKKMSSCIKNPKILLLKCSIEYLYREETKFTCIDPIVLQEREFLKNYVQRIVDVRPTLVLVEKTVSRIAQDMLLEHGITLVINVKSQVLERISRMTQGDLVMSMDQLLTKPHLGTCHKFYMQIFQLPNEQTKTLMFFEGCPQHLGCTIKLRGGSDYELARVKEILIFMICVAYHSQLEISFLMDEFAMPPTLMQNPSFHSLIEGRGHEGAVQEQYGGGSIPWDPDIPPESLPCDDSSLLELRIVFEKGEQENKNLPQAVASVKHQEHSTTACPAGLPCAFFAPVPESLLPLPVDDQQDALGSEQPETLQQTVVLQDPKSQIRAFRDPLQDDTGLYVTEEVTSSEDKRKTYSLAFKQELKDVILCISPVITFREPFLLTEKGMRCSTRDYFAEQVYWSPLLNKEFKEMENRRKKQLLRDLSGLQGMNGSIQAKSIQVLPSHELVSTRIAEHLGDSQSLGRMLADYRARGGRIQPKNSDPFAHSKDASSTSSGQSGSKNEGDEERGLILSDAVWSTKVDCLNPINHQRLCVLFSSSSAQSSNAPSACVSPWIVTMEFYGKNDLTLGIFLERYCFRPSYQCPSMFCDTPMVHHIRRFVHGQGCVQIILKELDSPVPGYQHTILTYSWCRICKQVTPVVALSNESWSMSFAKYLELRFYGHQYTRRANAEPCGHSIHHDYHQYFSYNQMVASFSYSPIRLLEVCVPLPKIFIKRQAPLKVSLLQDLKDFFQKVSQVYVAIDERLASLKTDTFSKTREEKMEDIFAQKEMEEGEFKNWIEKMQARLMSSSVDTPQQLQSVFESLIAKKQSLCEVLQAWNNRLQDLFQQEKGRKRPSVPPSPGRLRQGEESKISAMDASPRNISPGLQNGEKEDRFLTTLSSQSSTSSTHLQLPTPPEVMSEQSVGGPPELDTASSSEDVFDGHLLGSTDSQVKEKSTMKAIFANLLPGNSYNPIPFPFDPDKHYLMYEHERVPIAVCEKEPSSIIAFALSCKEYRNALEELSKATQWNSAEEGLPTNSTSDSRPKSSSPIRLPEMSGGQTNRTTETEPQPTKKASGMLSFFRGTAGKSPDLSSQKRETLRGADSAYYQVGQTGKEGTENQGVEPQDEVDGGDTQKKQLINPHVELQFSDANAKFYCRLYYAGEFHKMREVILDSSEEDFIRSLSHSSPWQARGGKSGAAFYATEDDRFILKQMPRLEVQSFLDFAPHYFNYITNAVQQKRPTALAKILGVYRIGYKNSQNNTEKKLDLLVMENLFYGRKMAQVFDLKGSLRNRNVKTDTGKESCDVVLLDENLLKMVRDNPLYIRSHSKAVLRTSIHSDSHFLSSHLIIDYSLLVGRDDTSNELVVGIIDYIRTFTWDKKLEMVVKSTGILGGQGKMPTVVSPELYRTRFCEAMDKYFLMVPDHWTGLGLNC

Row | SMILES | ADP-Glo kinase assay (%, 10 nM)
1 | Cc1cccc(-c2ccn(-c3nc(N4CCOCC4)nc4c3ncn4-c3cccc(Cl)c3)n2)c1 [Example 135, 4-(9-(3-chlorophenyl)-6-(3-(m-tolyl)-1H-pyrazol-1-yl)-9H-purin-2-yl)morpholine] | 51.18%
2 | Cc1cccc(/C=N/n2cnc3c(Nc4cc(C)n(C)n4)nc(N4CCOCC4)nc32)c1 [Example 188, (E)-N-(1,5-dimethyl-1H-pyrazol-3-yl)-9-((3-methylbenzylidene)amino)-2-morpholino-9H-purin-6-amine] | 65.93%
3 | Cc1cccc(/C=N/Nc2nc(N3CCOCC3)nc3c2ncn3CC(=O)c2cnccn2)c1 [Example 54, (E)-2-(6-(2-(3-methylbenzylidene)hydrazinyl)-2-morpholino-9H-purin-9-yl)-1-(pyrazin-2-yl)ethan-1-one] | 58.10%
4 | Cc1cccc(/C=N/n2cnc3c(Nc4ccccc4)nc(N4CCOCC4)nc32)c1 [Example 180, (E)-9-((3-methylbenzylidene)amino)-2-morpholino-N-phenyl-9H-purin-6-amine] | 63.03%
5 | Cc1cccc(/C=N/Nc2nc(N3CCOCC3)nc3c2ncn3CC(=O)c2ccc(F)cc2)c1 [Example 47, (E)-1-(4-fluorophenyl)-2-(6-(2-(3-methylbenzylidene)hydrazinyl)-2-morpholino-9H-purin-9-yl)ethan-1-one] | 60.82%
6 | Cc1cccc(/C=N/Nc2nc(N3CCOCC3)nc3c2nc(C)n3-c2cccc(F)c2)c1 [Example 162, (E)-4-(9-(3-fluorophenyl)-8-methyl-6-(2-(3-methylbenzylidene)hydrazinyl)-9H-purin-2-yl)morpholine] | 78.79%
7 | Cc1cccc(/C=N/Nc2nc(N3CCOCC3)nc3c2cnn3-c2cccnc2)c1 [Example 13, (E)-4-(4-(2-(3-methylbenzylidene)hydrazinyl)-1-(pyridin-3-yl)-1H-pyrazolo[3,4-d]pyrimidin-6-yl)morpholine] | 51.68%
8 | Cc1cccc(/C=N/Nc2nc(N3CCOCC3)nc3c2cnn3-c2ccncc2)c1 [Example 16, (E)-4-(4-(2-(3-methylbenzylidene)hydrazinyl)-1-(pyridin-4-yl)-1H-pyrazolo[3,4-d]pyrimidin-6-yl)morpholine] | 63.02%
9 | C(=N\n1cnc2c(Nc3ccncc3)nc(N3CCOCC3)nc21)/c1ccccc1 [Example 169, (E)-9-(benzylideneamino)-2-morpholino-N-(pyridin-4-yl)-9H-purin-6-amine] | 89.56%
10 | COc1ccc(Nc2nc(N3CCOCC3)nc3c2nc(C)n3/N=C/c2cccc(C)c2)cc1 [Example 205, (E)-N-(4-methoxyphenyl)-8-methyl-9-((3-methylbenzylidene)amino)-2-morpholino-9H-purin-6-amine] | 53.74%
11 | Cc1cccc(/C=N/Nc2nc(N3CCOCC3)nc3c2ncn3CC(=O)C2CC2)c1 [Example 19, (E)-1-cyclopropyl-2-(6-(2-(3-methylbenzylidene)hydrazinyl)-2-morpholino-9H-purin-9-yl)ethan-1-one] | 58.67%
12 | Cc1cccc(/C=N/Nc2nc(N3CCOCC3)nc3c2ncn3C2CN(C(=O)c3ccccc3)C2)c1 [Example 81, (E)-(3-(6-(2-(3-methylbenzylidene)hydrazinyl)-2-morpholino-9H-purin-9-yl)azetidin-1-yl)(phenyl)methanone] | 60.34%
13 | Cc1cccc(/C=N/Nc2nc(N3CCOCC3)nc3c(-c4ccccc4)cn(C)c23)c1 [Example 9, (E)-4-(5-methyl-4-(2-(3-methylbenzylidene)hydrazinyl)-7-phenyl-5H-pyrrolo[3,2-d]pyrimidin-2-yl)morpholine] | 51.47%
14 | Cc1cccc(/C=N/Nc2nc(N3CCOCC3)nc3c2ncn3CC(=O)c2cccc(OC(F)(F)F)c2)c1 [Example 50, (E)-2-(6-(2-(3-methylbenzylidene)hydrazinyl)-2-morpholino-9H-purin-9-yl)-1-(3-(trifluoromethoxy)phenyl)ethan-1-one] | 54.37%
15 | Cc1cccc(/C=N/n2cnc3c(-n4ccnc4)nc(N4CCOCC4)nc32)c1 [Example 176, (E)-N-(6-(1H-imidazol-1-yl)-2-morpholino-9H-purin-9-yl)-1-(m-tolyl)methanimine] | 56.91%
16 | Cc1cccc(/C=N/Nc2nc(N3CCOCC3)nc3c2nc(C)n3-c2ccccn2)c1 [Example 164, (E)-4-(8-methyl-6-(2-(3-methylbenzylidene)hydrazinyl)-9-(pyridin-2-yl)-9H-purin-2-yl)morpholine] | 63.89%
17 | COc1ccc(-n2cnc3c(-n4ccc(-c5cccc(C)c5)n4)nc(N4CCOCC4)nc32)cc1 [Example 134, 4-(9-(4-methoxyphenyl)-6-(3-(m-tolyl)-1H-pyrazol-1-yl)-9H-purin-2-yl)morpholine] | 59.84%
18 | Cc1cccc(/C=N/n2cnc3c(Nc4cncc(C)c4)nc(N4CCOCC4)nc32)c1 [Example 192, (E)-9-((3-methylbenzylidene)amino)-N-(5-methylpyridin-3-yl)-2-morpholino-9H-purin-6-amine] | 61.25%
19 | Cc1cccc(/C=N/Nc2nc(N3C[C@H]4C[C@@H]3CO4)nc3c2ncn3-c2cccnc2)c1 [Example 98, (1R,4R)-5-(6-(2-(3-methylbenzylidene)hydrazinyl)-9-(pyridin-3-yl)-9H-purin-2-yl)-oxa-5-azabicyclo[2.2.1]heptane] | 91.62%
20 | Cc1cccc(/C=N/Nc2nc(N3CCOCC3)nc3c2ncn3-c2ncccc2C)c1 [Example 142, (E)-4-(6-(2-(3-methylbenzylidene)hydrazinyl)-9-(3-methylpyridin-2-yl)-9H-purin-2-yl)morpholine] | 68.43%
21 | Cc1cccc(/C=N/n2c(C)nc3c(Nc4ccccc4)nc(N4CCOCC4)nc32)c1 [Example 206, (E)-8-methyl-9-((3-methylbenzylidene)amino)-2-morpholino-N-phenyl-9H-purin-6-amine] | 53.87%
22 | FC(F)(F)c1cccc(/C=N/n2cnc3c(Nc4ccncc4)nc(N4CCOCC4)nc32)c1 [Example 170, (E)-2-morpholino-N-(pyridin-4-yl)-9-((3-(trifluoromethyl)benzylidene)amino)-9H-purin-6-amine] | 79.60%
23 | COc1cccc(-c2ccn(-c3nc(N4CCOCC4)nc4c3ncn4CC(=O)c3ccccn3)n2)c1 [Example 68, 2-(6-(3-(3-methoxyphenyl)-1H-pyrazol-1-yl)-2-morpholino-9H-purin-9-yl)-1-(pyridin-2-yl)ethan-1-one] | 56.03%
24 | Cc1cccc(/C=N/Nc2nc(N3CCOCC3)nc3c2ncn3CC(=O)N2CCc3ccccc32)c1 [Example 29, (E)-1-(indolin-1-yl)-2-(6-(2-(3-methylbenzylidene)hydrazinyl)-2-morpholino-9H-purin-9-yl)ethan-1-one] | 55.15%
25 | COc1cccc(C(=O)Cn2cnc3c(N/N=C/c4cccc(C)c4)nc(N4CCOCC4)nc32)c1 [Example 38, (E)-1-(3-methoxyphenyl)-2-(6-(2-(3-methylbenzylidene)hydrazinyl)-2-morpholino-9H-purin-9-yl)ethan-1-one] | 82.96%
26 | Cc1cccc(/C=N/Nc2nc(N3CCOCC3)nc3c2ncn3-c2nccs2)c1 [Example 117, (E)-4-(6-(2-(3-methylbenzylidene)hydrazinyl)-9-(thiazol-2-yl)-9H-purin-2-yl)morpholine] | 67.79%
27 | Cc1cccc(/C=N/Nc2nc(N3CCOCC3)nc3c2nc(C)n3CC(=O)c2ccccc2)c1 [Example 156, (E)-2-(8-methyl-6-(2-(3-methylbenzylidene)hydrazinyl)-2-morpholino-9H-purin-9-yl)-1-phenylethan-1-one] | 65.90%
28 | Cc1cccc(/C=N/n2cnc3c(Nc4ccnc(Cl)c4)nc(N4CCOCC4)nc32)c1 [Example 193, (E)-N-(2-chloropyridin-4-yl)-9-((3-methylbenzylidene)amino)-2-morpholino-9H-purin-6-amine] | 64.35%
29 | Cc1cccc(/C=N/Nc2nc(N3CCOCC3)nc3c2nc(C)n3CC(=O)c2ccncc2)c1 [Example 159, (E)-2-(8-methyl-6-(2-(3-methylbenzylidene)hydrazinyl)-2-morpholino-9H-purin-9-yl)-1-(pyridin-4-yl)ethan-1-one] | 65.33%
30 | COc1cccc(-n2c(C)nc3c(N/N=C/c4cccc(C)c4)nc(N4CCOCC4)nc32)c1 [Example 160, (E)-4-(9-(3-methoxyphenyl)-8-methyl-6-(2-(3-methylbenzylidene)hydrazinyl)-9H-purin-2-yl)morpholine] | 77.75%
